In publication PMC5371667, “Targeting Bile Acid Receptors: Discovery of a Potent and Selective Farnesoid X Receptor Agonist as a New Lead in the Pharmacological Approach to Liver Diseases” (Frontiers in Pharmacology, 2017):
Read-outs that look alike come from different tables or passages of the source.

Columns and labels:
GST-fusion FXR-LBD = biological target: T1, GST-fusion FXR-LBD (Homo sapiens, UniProt Q96RI1); assay: Alpha Screen coactivator (SRC-1 peptide) recruitment assay; assay type: biochemical; settings: recruitment of SRC-1 co-activator peptide, Alfa Screen, Table 1; for Efficacy: 6-ECDCA = 100
T1 construct: 10 nM of purified GST-tagged FXR-LBD protein
T1 sequence (Q96RI1 262-486 limits assumed): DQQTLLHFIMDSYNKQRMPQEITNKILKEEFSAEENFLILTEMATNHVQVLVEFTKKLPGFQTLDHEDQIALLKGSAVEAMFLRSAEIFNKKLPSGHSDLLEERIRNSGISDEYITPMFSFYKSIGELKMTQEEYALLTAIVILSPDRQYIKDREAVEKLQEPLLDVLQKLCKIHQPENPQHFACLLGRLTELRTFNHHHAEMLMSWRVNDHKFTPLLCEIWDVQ
Description: Activation of FXR was determined by Alpha Screen Technology in a Coactivator Recruitment Assay. Anti-GST-coated acceptor beads were used to capture the GST-fusion FXR-LBD, whereas the biotinylated-SRC-1 peptide was captured by the streptavidin donor beads. Upon illumination at 680 nm, chemical energy is transferred from donor to acceptor beads across the complex streptavidin-donor/[…]-LBD/anti-GST-acceptor and a signal is produced. The assay was performed in white, low-volume, 384-well Optiplates (PerkinElmer) using a final volume of 25 μL containing final concentrations of 10 nM of purified GST-tagged FXR-LBD protein, 30 nM biotinylated SRC-1 peptide, 20 μg/mL anti-GST acceptor beads, and 10 μg/mL of streptavidin donor bead (PerkinElmer). The assay buffer contained 50 mM Tris (pH 7.4), 50 mM KCl and 1 mM DTT. The stimulation times with 1 μL of tested compound (dissolved in 50% DMSO/H2O) were fixed to 30 min at room temperature. The concentration of DMSO in each well was maintained at a final concentration of 2%. After the addition of the detection mix (acceptor and donor beads), the plates were incubated in the dark for 3 h at room temperature and then were read in an Envision microplate analyzer (PerkinElmer).

human GPBAR1 = biological target: T2, human GPBAR1 (Homo sapiens, UniProt Q8TDU6); assay: GPBAR1 transactivation on HepG2 cells (CRE luciferase reporter); assay type: cell-based; settings: compounds at 1 and 10 μM, TLCA 10 μM positive control
T2 construct: expressed in transfected cells; host or cells: HepG2
T2 sequence (Q8TDU6 1-330): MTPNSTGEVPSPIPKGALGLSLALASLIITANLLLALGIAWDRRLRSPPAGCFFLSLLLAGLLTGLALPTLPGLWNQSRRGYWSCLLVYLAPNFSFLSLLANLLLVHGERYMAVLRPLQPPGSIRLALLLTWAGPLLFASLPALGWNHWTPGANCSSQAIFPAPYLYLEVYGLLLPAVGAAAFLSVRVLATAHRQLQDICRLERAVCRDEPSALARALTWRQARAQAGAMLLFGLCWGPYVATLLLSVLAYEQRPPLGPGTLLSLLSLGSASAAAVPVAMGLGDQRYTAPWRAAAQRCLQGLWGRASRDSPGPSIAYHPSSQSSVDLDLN
Description: For FXR mediated transactivation, HepG2 cells were plated at 5 × 10^4 cells/well in a 24 well plate. Cells were transfected with 200 ng of the reporter vector p(hsp27)-TK-LUC containing a FXR response element (IR1) cloned from the promoter of heat shock protein 27 (hsp27), 100 ng of pSG5-FXR, 100 ng of pSG5-RXR, and 100 ng of pGL4.70 (Promega), a vector encoding the human Renilla gene. For GPBAR1 mediated transactivation, HepG2 cells were plated at 5 × 10^4 cells/well in a 24 well-plate and transfected with 200 ng of pGL4.29 (Promega), a reporter vector containing a cAMP response element (CRE) that drives the transcription of the luciferase reporter gene luc2P, with 100 ng of pCMVSPORT6-human GPBAR1, and with 100 ng of pGL4.70 Renilla. […] TLCA (10 μM) was used as a positive control for GPBAR1 activity.

[1] = In vivo metabolic profile of compound 2 in mice (LC-MS); settings: 50 mg/kg oral of compound 2, LC-MS
hFXR = biological target: T3, hFXR (Homo sapiens, UniProt Q96RI1); assay: FXR transactivation on HepG2 cells (luciferase reporter); assay type: cell-based
T3 construct: expressed in transfected cells; host or cells: HepG2
T3 sequence (Q96RI1 1-486): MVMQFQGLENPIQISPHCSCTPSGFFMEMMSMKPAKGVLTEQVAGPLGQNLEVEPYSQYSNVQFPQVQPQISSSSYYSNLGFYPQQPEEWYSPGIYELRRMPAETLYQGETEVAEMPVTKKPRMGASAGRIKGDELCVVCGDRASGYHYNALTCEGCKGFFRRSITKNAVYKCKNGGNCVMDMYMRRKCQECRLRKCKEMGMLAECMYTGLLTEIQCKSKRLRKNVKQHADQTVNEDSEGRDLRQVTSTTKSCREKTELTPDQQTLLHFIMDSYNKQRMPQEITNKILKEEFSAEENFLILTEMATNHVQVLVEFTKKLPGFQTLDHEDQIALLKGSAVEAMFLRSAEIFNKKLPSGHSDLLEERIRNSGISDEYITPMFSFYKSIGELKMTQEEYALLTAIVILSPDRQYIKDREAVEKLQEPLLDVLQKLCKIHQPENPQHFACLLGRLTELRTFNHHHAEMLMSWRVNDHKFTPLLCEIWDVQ
T3 sequence (P19793 1-462 partner): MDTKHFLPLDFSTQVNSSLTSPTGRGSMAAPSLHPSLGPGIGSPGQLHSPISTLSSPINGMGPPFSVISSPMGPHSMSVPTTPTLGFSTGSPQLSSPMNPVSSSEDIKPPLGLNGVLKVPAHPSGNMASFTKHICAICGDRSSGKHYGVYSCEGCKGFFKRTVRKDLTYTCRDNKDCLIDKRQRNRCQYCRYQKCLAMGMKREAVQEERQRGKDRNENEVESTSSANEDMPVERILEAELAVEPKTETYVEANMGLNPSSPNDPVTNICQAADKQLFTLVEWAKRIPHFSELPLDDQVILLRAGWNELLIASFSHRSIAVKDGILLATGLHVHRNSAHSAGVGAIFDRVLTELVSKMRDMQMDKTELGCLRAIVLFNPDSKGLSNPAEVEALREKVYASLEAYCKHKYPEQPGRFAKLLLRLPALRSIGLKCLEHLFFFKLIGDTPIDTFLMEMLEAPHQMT
Description: HepG2 (HB, 8065 from ATCC), an immortalized human epatocarcinoma cell line, was cultured and maintained at 37°C and 5% CO2 in E-MEM additioned with 10% FBS, 1% glutamine, and 1% penicillin/streptomycin. For FXR mediated transactivation, HepG2 cells were plated at 5 × 10^4 cells/well in a 24 well plate. Cells were transfected with 200 ng of the reporter vector p(hsp27)-TK-LUC containing a FXR response element (IR1) cloned from the promoter of heat shock protein 27 (hsp27), 100 ng of pSG5-FXR, 100 ng of pSG5-RXR, and 100 ng of pGL4.70 (Promega), a vector encoding the human Renilla gene. For GPBAR1 mediated transactivation, HepG2 cells were plated at 5 × 10^4 cells/well in a 24 well-plate and transfected with 200 ng of pGL4.29 (Promega), a reporter vector containing a cAMP response element (CRE) that drives the transcription of the luciferase reporter gene luc2P, with 100 ng of pCMVSPORT6-human GPBAR1, and with 100 ng of pGL4.70 Renilla. […]. TLCA (10 μM) was used as a positive control for GPBAR1 activity.
HepG2 cells were transfected as described above and then treated with increasing concentrations of compounds. At 18 h post stimulations, cellular lysates were assayed for luciferase and Renilla activities using the Dual-Luciferase Reporter assay system (E1980, Promega). Luminescence was measured using Glomax 20/20 luminometer (Promega). Luciferase activities were normalized with Renilla activities.

[2] = cited from earlier work
[3] = PBC patients, ref Mason et al., 2010

CCC1C(=O)C2C3CCC(C(C)CCC(=O)O)C3(C)CCC2C2(C)CCC(N=[N+]=[N-])CC12 (stereo not shown) [compound 1]
Efficacy (GST-fusion FXR-LBD): 32

CCC1C(O)C2C3CCC(C(C)CCCO)C3(C)CCC2C2(C)CCC(N)CC12 (stereo not shown) [compound 11]
GPBAR1 transactivation (human GPBAR1): residual activity

CCC1C(O)C2C3CCC(C(C)CCCO)C3(C)CCC2C2(C)CCC(N=[N+]=[N-])CC12 (stereo not shown) [compound 7]
EC50 (GST-fusion FXR-LBD): 1.8 ± 0.21 µM
Efficacy (GST-fusion FXR-LBD): 57

CCC1C(O)C2C3CCC(C(C)CCCO)C3(C)CCC2C2(C)CCC(N=[N+]=[N-])CC12 (stereo not shown) [compound 4]
Efficacy (GST-fusion FXR-LBD): 39

CCC1C(O)C2C3CCC(C(C)CCC(=O)O)C3(C)CCC2C2(C)CCC(N=[N+]=[N-])CC12 (stereo not shown) [compound 6]
EC50 (GST-fusion FXR-LBD): 1.38 ± 0.35 µM
Efficacy (GST-fusion FXR-LBD): 61

CCC1C(=O)C2C3CCC(C(C)CCC(=O)O)C3(C)CCC2C2(C)CCC(N)CC12 (stereo not shown) [compound 13]
GPBAR1 transactivation (human GPBAR1): residual activity

CCC1C(O)C2C3CCC(C(C)CCCO)C3(C)CCC2C2(C)CCC(N=[N+]=[N-])CC12 (stereo not shown) [compound 3]
EC50 (GST-fusion FXR-LBD): 0.55 ± 0.08 µM
Efficacy (GST-fusion FXR-LBD): 55

CC[C@H]1[C@@H](O)C2C3CC[C@H]([C@H](C)CCC(=O)NCCS(=O)(=O)O)[C@@]3(C)CCC2[C@@]2(C)CC[C@H](N=[N+]=[N-])C[C@@H]12 (stereo partly shown) [compound 2a]
recovery in bile and plasma after administration of compound 2 [1]: efficiently recovered in bile and in plasma
EC50 (hFXR; 10 nM to 25 μM, 18 h): 3.95 µM
agonist activity toward FXR (hFXR; dose-response): full agonist activity

CCC1C(O)C2C3CCC(C(C)CCC(=O)O)C3(C)CCC2C2(C)CCC(N)CC12 (stereo not shown) [compound 14]
GPBAR1 transactivation (human GPBAR1): residual activity

CCC1C(=O)C2C3CCC(C(C)CCC(=O)O)C3(C)CCC2C2(C)CCC(N=[N+]=[N-])CC12 (stereo not shown) [compound 5]
Efficacy (GST-fusion FXR-LBD): 24

CCC1C(O)C2C3CCC(C(C)CCCO)C3(C)CCC2C2(C)CCC(N=[N+]=[N-])CC12 (stereo not shown) [compound 8]
Efficacy (GST-fusion FXR-LBD): 49

CC[C@H]1[C@@H](O)[C@@H]2[C@H](CC[C@]3(C)[C@@H]([C@H](C)CCC(=O)O)CC[C@@H]23)[C@@]2(C)CC[C@@H](O)C[C@@H]12 [6-ECDCA]
patients with drug discontinuation caused by pruritus [2, 3]: 40%
patients with pruritus (itching) [2, 3]: 50–60%
patients with pruritus (itching) ([2]; patients with NASH, ref Neuschwander-Tetri et al., 2015): 23%
